One compound from US11850250B2, “Use of homoharringtonine in preparation of betacoronavirus replication inhibitor in human” (priority 2020, dated 2023) can be followed below.

The structures appear in SMILES notation.

One data set relates to SARS-CoV-2. Put plainly: microbe, parasite or virus in culture. It counts as cell-based. To be noted: Severe acute respiratory syndrome coronavirus 2, Vero C1008, read-out: Inhibition rate (%).
In the next data set the test system is 60 human cell lines. Put plainly: Cytotoxicity of HHT in 60 human cell lines. To be noted: 1 μM (or lower) for 48 hours; cell lines other than the few that died obviously, of 60 human cell lines.

`COC(=O)C[C@](O)(CCCC(C)(C)O)C(=O)O[C@@H]1C(OC)=C[C@]23CCCN2CCc2cc4c(cc2[C@H]13)OCO4` [HHT, Homoharringtonine]: the inhibition at 0.186 µM in the data set with SARS-CoV-2 (drug concentration 0.186 μM) was found to be 31.7 ± 7.64%. In addition, in the data set on SARS-CoV-2 (drug concentration 0.375 μM), the inhibition at 0.375 µM stood at 60 ± 8.66%. For the same compound, the inhibition at 0.75 µM with SARS-CoV-2 (drug concentration 0.75 μM) came to 86.7 ± 2.89%. In the data set with SARS-CoV-2 (drug concentration 1.50 μM), the inhibition at 1.5 µM is 93.3 ± 2.89%. The cell viability result in the data set with 60 human cell lines was “about 100%”.
